This is an account of results in US11484543B2, “Compositions and methods for diagnosing and treating diseases and disorders associated with mutant KCNJ5” (The Rockefeller University, priority 2017, dated 2022).

Read-outs that look alike come from different tables or passages of the source.

Data set [1] addresses T1, KCNJ5^G151R homotetramers (Homo sapiens, UniProt P48544, G151R).
T1 construct: GFP; expressed in transfected cells; host or cells: HEK293T (American Type Culture Collection), transient
T1 sequence (P48544 1-419 G151R): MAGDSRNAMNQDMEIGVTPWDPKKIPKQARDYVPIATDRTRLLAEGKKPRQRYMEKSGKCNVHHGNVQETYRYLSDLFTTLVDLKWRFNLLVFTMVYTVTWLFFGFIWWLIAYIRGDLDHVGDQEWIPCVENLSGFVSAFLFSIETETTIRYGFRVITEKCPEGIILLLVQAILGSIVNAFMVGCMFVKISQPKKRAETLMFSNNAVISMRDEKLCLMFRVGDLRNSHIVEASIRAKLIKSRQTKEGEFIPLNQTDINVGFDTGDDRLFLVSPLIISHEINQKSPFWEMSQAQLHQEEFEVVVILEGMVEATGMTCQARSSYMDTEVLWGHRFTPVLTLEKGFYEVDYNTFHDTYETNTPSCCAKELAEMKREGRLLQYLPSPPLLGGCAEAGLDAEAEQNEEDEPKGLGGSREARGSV
Put plainly: Perforated whole-cell patch clamp, KCNJ5^G151R homotetramers in HEK293T cells. The data set is classed as cell-based. The note with it: HEK-293T, at −80 mV. How it is done:
Cation currents were measured with the perforated whole cell recording technique (140 mM NaCl/5 mM KCl bath solution, 140 mM KCl pipette solution for KCNJ5^G151R; 140 mM NaCl/5 mM KCl bath solution, 140 mM KCl, 1.8 mM MgCl2 pipette solution for KCNJ5^L168R; 140 mM KCl bath and pipette solution for KCNJ5^WT). […] Errors represent standard error of the mean, N=3 to 6. […] In contrast, WT currents are not inhibited.
HEK293T cells (American Type Culture Collection) were used for transient expression of GFP-tagged KCNJ5 or KCNJ3. The cells were grown in Dulbecco's modified Eagle medium (DMEM; Invitrogen) supplemented with 10% FBS (Invitrogen) in 5% CO2 and 95% air at 37° C. […]
Within 24 hr after transfection, the cells were treated with trypsin-containing medium (TrypLE Express) (Gibco) for 10 minutes to detach the cells. […] Fluorescence signal (an indication of positive transfection) was detected with an intensified video imaging system including a SIT 68 camera (Long Island Industries). […] After forming a high resistance seal (>2 GΩ), the membrane capacitance was monitored until the whole-cell patch configuration was formed. The cell membrane capacitance was measured and compensated. The K/cation currents were measured from −80 mV to 20 mV with 20 mV steps by an Axon 200A patch-clamp amplifier. […]
(In general: In patch-clamp work, channel activity is measured electrically.)

The test system of data set [2] is CYP11B2 (aldosterone synthase) expression, H295R cells expressing KCNJ5^L168R. Put plainly: Real-time PCR of CYP11B2 in H295R cells transfected with KCNJ5^L168R. The data set is classed as cell-based, human. The note with it: 5, 20 or 50 μM for 18 h; p=0.0034 at 20 μM. How it is done:
H295R cells were cultured in DMEM/F12, HEPES (Gibco) supplemented with 2.5% Ultroser G (Pall Biosepra), 1% ITS+ Premix (Corning) and 1% Penicillin/Streptomycin (Gibco). Plasmids were purified using the Endofree Maxi Kit (Qiagen). […] 3×10^6 cells were transfected with 3 μg pIRES eGFP containing no insert, WT or mutant KCNJ5 using an Amaxa Nucleofector I (program P-20) and the Nucleofector Kit R (Lonza). Cells were allowed to recover briefly in RPMI 1640 medium (Gibco). […] After an additional 18 h, RNA was harvested using the RNeasy Mini Kit (Qiagen) following the manufacturer's instructions. 300 ng RNA were transcribed using the Quantitect Reverse Transcription Kit (Qiagen). Expression levels of CYP11B2 and GAPDH were quantified in triplicates in a 7300 Real-Time PCR System (Applied Biosystems) using the Taqman Gene Expression Master Mix and assays Hs01597732_m1 (CYP11B2) or HS02758991_g1 (GAPDH) (all Applied Biosystems). DDCT values were calculated by normalization of DCT values, using the average DCT of vehicle treated empty vector-transfected cells as a reference.
This cell line is derived from a human adrenocortical carcinoma and represents a commonly used in vitro model of zona glomerulosa aldosterone production (Wang et al. 2012, Horm. Metab. Res. 44:245-250). […]
For orientation: Quantitative PCR measures a nucleic acid by following its amplification.

For data set [3] the following is noted: single dose of 300 mg, healthy adults, cited from earlier work.

Take `CC[C@H]1OC(=O)[C@H](C)[C@@H](O[C@H]2C[C@@](C)(OC)[C@@H](O)[C@H](C)O2)[C@H](C)[C@@H](O[C@@H]2O[C@H](C)C[C@H](N(C)C)[C@H]2O)[C@](C)(O)C[C@@H](C)/C(=N\OCOCCOC)[C@H](C)[C@@H](O)[C@]1(C)O` [Roxithromycin, roxithromycin]: testing at 10 µM in data set [1] (10 μM) gave an inhibition of 53%. Besides, 20 µM produced 80% inhibition in data set [1] (20 μM). For the same compound, the “expression of CYP11B2” value in data set [2] is given as “inhibited expression of CYP11B2 in a dose-dependent fashion”. Moreover, the maximum serum concentrations in data set [3] was 16.4 mg/L; in data set [3] (conversion of 16.4 mg/L) it was about 17 µM.
